Assay [1] deals with HCC2429 xenografts. Kind of assay: MRK003 treatment of subcutaneous HCC2429 xenografts. It counts as in vivo, mice. The method, then: (FIG. 8A) Xenografts injected with HCC2429 were treated with MRK003 once the tumors became palpable. After 2 weeks of treatment, the inventors observed about a 50% reduction in tumor size. […] Histological examination of resected tumors from xenografts at the end of treatment.
To assess the effect of pharmacologically inhibiting Notch activation in vivo, the inventors treated subcutaneous xenografts with MRK003, a γ-secretase inhibitor from Merck, Inc. & Co. Based on the manufacturer's recommended dose, the mice were treated with 100 mg/kg orally for 3 consecutives days per week once the tumors were palpable. At the end of a 2-week treatment, the animals were then euthanized, and the tumors were harvested.

Assay [2] relates to HCC2429 cells. Kind of assay: Cell survival with MRK003 in HCC2429 clones expressing Notch3 siRNA. It counts as cell-based, human. As to conditions: HCC2429 clones with loss of Notch3 (siRNA-N3). The procedure:
HCC2429 cells are sensitive to GSI, and the sensitivity increases in low serum, similarly to that observed with clones expressing the DN construct. Tumor cells treated with DMSO alone had no change in cell viability. (FIG. 7B) Inhibition of S3 proteolytic processing results in the decrease of Notch3 intracellular domain (N3ICD) and accumulation of S2 product (N3ΔE) after 3 hours. (FIG. 7C) In this experiment, HCC2429 was stably transfected with plasmid vector expressing Notch3 siRNA.
A γ-Secretase Inhibitor Reduces Proliferation in Lung Cancer Cells. Proteolytic processing of Notch receptors is required for activation. As previously described, three proteolytic cleavage sites are involved in enabling Notch signaling. In the final step, the membrane-associated Notch fragment is cleaved within its transmembrane domain by a γ-secretase-containing protein complex. Mammalian presenilins (PS-1 and PS-2) are polytopic transmembrane proteins that appear to function as aspartyl proteases within a multiprotein, γ-secretase complex (Wolfe and Kopan, 2004). Presenilins provide the active site of the proteolytic activity. This last cleavage releases the Notch intracellular domain, initiating CBF-1-mediated signaling. […]

For assay [3], the system named is HCC2429 lung cancer cell line. The assay is described as follows: Soft-agar colony assay, MRK003 with AG1478. Format: cell-based, human. An excerpt:
FIGS. 12A-B. In HCC2429 lung cancer cell line, Notch inhibitor MRK003 enhances the effect of EGFR inhibitor AG1478 on colony formation in soft agar. […] (FIG. 12B) Graph depicts the quantitative decrease in colony formation.
(§1) EGFr Inhibitors Enhance the Anti-proliferation Effect of Notch3 Inhibition. […] Based on existing literature and their observations, the inventors hypothesized that Notch3 acts synergistically with the EGFR pathway in the promotion and the survival of lung cancer cells and that combining inhibitors of both pathways will have synergistic therapeutic value. To test this hypothesis, the inventors examined whether inhibiting the Notch3 pathway increases tumor inhibition when lung cancer cells are treated with an EGFR tyrosine kinase inhibitor, AG1478. […] Synergism can also be observed when the γ-secretase inhibitor L-685,458 is added to AG1478 (FIG. 11B). […] From a therapeutic standpoint, Notch3 is a good target for therapeutic intervention both alone and in combination with growth factor receptor inhibitors.

For assay [4], the target named is T1, Jagged1 (Homo sapiens, UniProt P78504).
T1 construct: expressed in transfected cells; host or cells: HEK cells
The assay is described as follows: Streptavidin pull-down of peptides from Jagged1-HA transfected HEK cells, anti-HA immunoblot. As to conditions: HEK cells transfected with Jagged1-HA, anti-HA blot. Format: binding. The method, then:
FIG. 15. […] HEK cells were transfected with Jagged1-HA and treated with Notch3 peptides. The peptides were then immunoprecipitated from cell lysate with streptavidin beads and immunoblotted with anti-HA antibody. No: no input; C: control peptide. Sequences N16: CFNTLGGHS, N17: CVCVNGWTGES, N102: CATAV, N103: CFHGAT, N132: CLNGGS.
(§2) Each of 155 different peptides were assayed in quadruplicate, and only those peptides that produced a significant increase of fluorescence signal in all 4 wells were considered potentially positive or capable of inducing apoptosis. The bar graphs here reflect fluorescence counts. […] The peptides were then immunoprecipitated from cell lysate with streptavidin beads and immunoblotted with anti-HA antibody.

The nature of assay [5]: Peptide screen for apoptosis by Annexin V staining using an FMAT system. As to conditions: FMAT screen of 155 peptides, quadruplicate. Format: cell-based. The procedure:
FIG. 13. […] Each of 155 different peptides were assayed in quadruplicate, and only those peptides that produced a significant increase of fluorescence signal in all 4 wells were considered potentially positive or capable of inducing apoptosis. The bar graphs here reflect fluorescence counts. Sequences N102: CATAV, N103: CFHGAT, N105: CVSNP, N132: CLNGGS.
as §2

Assay [6] concerns Notch3-dependent gene Hey1. Kind of assay: Hey1 transcription by real-time RT-PCR after peptide treatment. It counts as cell-based, human. In general terms: Quantitative PCR measures a nucleic acid by following its amplification.
Assay [7] relates to HCC2429. The assay is described as follows: Apoptosis by annexin V labelling and flow cytometry after Notch3 peptide treatment. It counts as cell-based, human. As to conditions: HCC2429, compared to control. The method, then:
(FIG. 14A) HCC2429 was treated with Notch3 peptides N16, N17, N102, N103, N132. […] MRK003-treated cell is used as positive control. After treatment, cells were labeled with annexin V and detected using flow cytometry. […] MRK003-treated cells were used as positive control. Sequences N16: CFNTLGGHS, N17: CVCVNGWTGES, N102: CATAV, N103: CFHGAT, N132: CLNGGS. […]

Assay [8] concerns H460. The assay is described as follows: Sensitivity to AG1478 with and without Notch3 inhibition (DN construct or γ-secretase inhibitor). It counts as cell-based, human.
Source text: (§3) FIGS. 11A-B. Notch3 modulates the EGF pathway and increases sensitivity to an EGFr inhibitor. (FIG. 11A) In HCC2429, inhibition of the Notch3 pathway increases sensitivity to AG1478 nearly 40-fold. […] (FIG. 11B) A similar observation is made in H460 when the inventors combine AG1478 with L-685,458, a γ-secretase inhibitor, further supporting the hypothesis that EGF cooperates with the Notch pathway in oncogenesis.
as §1

Assay [9] relates to HCC2429 cells. The assay is described as follows: Sensitivity to the EGFR tyrosine kinase inhibitor AG1478 with and without Notch3 inhibition (DN construct). Format: cell-based, human.
Source text: as §3, §1

A short description of assay [10]: Apoptosis (percentage of annexin V positive cells) after Fc-fusion protein treatment. Format: cell-based. As to conditions: 40 hrs treatment, compared to control and Fc control. The procedure:
[…] […] Apoptosis was determined by percentage of annexin V positive cells. Sequences N16: CFNTLGGHS, N17: CVCVNGWTGES, N132: CLNGGS.

“Also recorded” adds a separate entry of the source. Where no end group is shown, it is not given here.

The IC50 is the concentration at which inhibition is half-maximal.

T1 sequence (P78504 34-1218, species assumed): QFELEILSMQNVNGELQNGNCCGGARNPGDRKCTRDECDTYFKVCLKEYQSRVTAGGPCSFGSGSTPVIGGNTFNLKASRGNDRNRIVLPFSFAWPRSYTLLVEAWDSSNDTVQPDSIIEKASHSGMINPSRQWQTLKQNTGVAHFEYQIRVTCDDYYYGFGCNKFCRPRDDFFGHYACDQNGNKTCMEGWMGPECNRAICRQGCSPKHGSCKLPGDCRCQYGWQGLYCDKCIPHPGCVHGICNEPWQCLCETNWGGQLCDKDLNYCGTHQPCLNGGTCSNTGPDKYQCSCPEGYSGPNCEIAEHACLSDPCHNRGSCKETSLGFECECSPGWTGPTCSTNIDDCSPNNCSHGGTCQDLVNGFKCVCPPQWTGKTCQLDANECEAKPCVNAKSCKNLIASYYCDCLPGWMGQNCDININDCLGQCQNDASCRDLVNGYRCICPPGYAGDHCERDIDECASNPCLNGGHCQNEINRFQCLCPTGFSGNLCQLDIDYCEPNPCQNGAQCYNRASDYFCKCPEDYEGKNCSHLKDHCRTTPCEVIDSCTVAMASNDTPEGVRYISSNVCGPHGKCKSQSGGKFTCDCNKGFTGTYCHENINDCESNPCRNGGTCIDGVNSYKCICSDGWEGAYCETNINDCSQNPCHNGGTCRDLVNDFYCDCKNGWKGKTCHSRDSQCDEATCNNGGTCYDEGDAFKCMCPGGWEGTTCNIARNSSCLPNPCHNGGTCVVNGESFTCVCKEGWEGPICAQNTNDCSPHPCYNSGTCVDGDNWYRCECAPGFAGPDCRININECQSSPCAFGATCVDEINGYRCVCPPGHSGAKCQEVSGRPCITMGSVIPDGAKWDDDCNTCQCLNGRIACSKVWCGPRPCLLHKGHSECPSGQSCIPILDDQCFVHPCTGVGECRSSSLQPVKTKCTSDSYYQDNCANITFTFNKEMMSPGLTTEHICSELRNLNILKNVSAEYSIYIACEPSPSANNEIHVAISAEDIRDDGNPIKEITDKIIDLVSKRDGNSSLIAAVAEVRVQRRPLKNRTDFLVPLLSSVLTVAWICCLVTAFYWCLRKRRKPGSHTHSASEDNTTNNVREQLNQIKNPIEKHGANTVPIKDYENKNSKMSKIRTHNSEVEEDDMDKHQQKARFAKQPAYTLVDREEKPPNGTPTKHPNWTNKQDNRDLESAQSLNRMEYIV

Take `O=S1(=O)N[C@@]2(CN1CC(F)(F)F)[C@@H]1CC[C@H]2Cc2ccc(/C=C/CN3CCC(C(F)(F)F)CC3)cc2C1` [MRK003]: the tumor size result in [1] (100 mg/kg orally, 3 consecutive days per week, end of 2-week treatment) was “reduction of tumor size”. The “reduction in tumor size” value in [1] (HCC2429 xenografts, 100 mg/kg orally, 3 consecutive days per week, after 2 weeks of treatment) is on record as ~50%. In assay [1] (end of treatment, compared to control), the “histological examination of resected tumors” value was “Marked necrosis”. Besides, the “activated Notch3 (N3ICD) in tumor” value in assay [1] (xenograft tumors treated with MRK003) is reported as “reduction in activated Notch3 (N3ICD); also recorded: Loss of activated Notch3 (N3ICD)”. Also, the “cell survival when treated with MRK003” value in [2] is “no loss in cell survival”. Further, the “colony formation in soft agar” value in [3] (HCC2429, MRK003 alone) is on record as “decreases colony formation”. For the same compound, the “colony formation in soft agar, combination with EGFR inhibitor AG1478” value in [3] (HCC2429, MRK003 combined with AG1478) is reported as “additive effects; also recorded: enhances the effect of AG1478 on growth”.
As to CFHGAT [N103, Notch3 peptide], in assay [4], the “binding to ligand Jagged1” value is on record as “binding to ligand Jagged1”. Moreover, in assay [5], the “apoptosis by Annexin V staining (fluorescence counts)” value (shortened to “apoptosis by Annexin V staining”) was “induce apoptosis”. The “transcription of Notch3-dependent gene Hey1” value (from here on “transcription”) in assay [6] is “reduced transcription of Notch3-dependent gene Hey1”. The “apoptosis (annexin V, flow cytometry)” value in assay [7] was “Induction of apoptosis”.
On to `CC(C)C[C@H](NC(=O)[C@H](Cc1ccccc1)C[C@@H](O)[C@H](Cc1ccccc1)NC(=O)OC(C)(C)C)C(=O)N[C@@H](Cc1ccccc1)C(N)=O` [L-685,458], for which the “combined effect of L-685,458 added to AG1478” value in [8] (H460 (FIG. 11B)) is “Synergism”.
Take `COc1cc2ncnc(Nc3cccc(Cl)c3)c2cc1OC` [AG1478]: the IC50 in assay [8] (H460, without Notch3 inhibition) turned out to be 23.8 µM; in assay [8] (H460 with inhibition of the Notch3 pathway), 12.1 µM; in [9] (HCC2429, EGF-supplemented media, without Notch3 inhibition), 8.3 µM; in assay [9] (HCC2429 clones transfected with the DN (dominant-negative Notch3) construct, EGF-supplemented media), 0.2 µM. Also, the “reduction of cancer cell survival upon inhibition of the Notch3 pathway” value in [8] (H460 treated with AG1478) is “approximately two-fold”. Besides, the “increase in sensitivity to AG1478 upon inhibition of the Notch3 pathway” value in assay [9] (HCC2429, DN construct versus control) was 40 fold.
Take CATAV [N102, Notch3 peptide]: the “binding to ligand Jagged1” value in assay [4] was “binding to ligand Jagged1”. The “apoptosis by Annexin V staining” value in [5] is “induce apoptosis”. In assay [6], the “transcription” value is listed as “reduced transcription of Notch3-dependent gene Hey1”. Further, in [7], the “apoptosis (annexin V, flow cytometry)” value is recorded as “Induction of apoptosis”.
With CVSNP [N105, Notch3 peptide], in [5], the “apoptosis by Annexin V staining” value is given as “induce apoptosis”.
With CLNGGS [N132, Notch3 peptide], in assay [4], the “binding to ligand Jagged1” value is recorded as “binding to ligand Jagged1”. Besides, the “apoptosis by Annexin V staining” value in assay [5] is listed as “induce apoptosis”. Moreover, the “transcription” value in assay [6] is reported as “reduced transcription of Notch3-dependent gene Hey1”. Besides, the “apoptosis (annexin V, flow cytometry)” value in [7] was “Induction of apoptosis”.
Regarding “N16-17-Fc: Purified recombinant Fc-fusion Notch3 protein with N16-17 sequences (CFNTLGGHSCVCVNGWTGES; cysteine pairing not given here; also: Fc fusion (dimerising Fc left off))”, in [10], the “apoptosis (percentage of annexin V positive cells)” value was “induces apoptosis”.
Take CFNTLGGHS [N16, Notch3 peptide]: the “binding to ligand Jagged1” value in [4] is “binding to ligand Jagged1”. In addition, the “transcription” value in assay [6] is on record as “reduced transcription of Notch3-dependent gene Hey1”. The “apoptosis (annexin V, flow cytometry)” value in assay [7] is recorded as “Induction of apoptosis”.
On to CVCVNGWTGES [N17, Notch3 peptide], for which, in assay [4], the “binding to ligand Jagged1” value was “binding to ligand Jagged1”. Also, in assay [6], the “transcription” value is reported as “reduced transcription of Notch3-dependent gene Hey1; also recorded: best reduction in Hey1 transcription”. Moreover, the “apoptosis (annexin V, flow cytometry)” value in assay [7] is “Induction of apoptosis; also recorded: highest apoptotic activity”.
